Test results: PubChem BioAssay AID330 (DTP/NCI, 2004)
“And” between values parts separate entries of the source, which are not always exact repeats. Equal entries are not always repeated. Inconclusive results and toxic doses are left out. How the source made its calls: active means survival T/C of 150% or more; inactive means T/C below 125% in these data.

Test system: P388 leukemia ip, CD2F1 mice, survival T/C
Experiment: NCI In Vivo Anticancer Drug Screen. Data for tumor model P388 Leukemia (intraperitoneal) in CD2F1 (CDF1) mice
Details: endpoint: median survival time, higher = longer survival
Method in brief: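 Mice carrying the transplanted tumor received test compound or vehicle. Survival was recorded in each group, and the value is the treated-group measurement divided by that of the vehicle-treated control group.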

[1] = dose: 50.0 mg/kg/injection, schedule: Q01DX005 (ip), vehicle: saline with Tween-80
[2] = dose: 100.0 mg/kg/injection, schedule: Q01DX005 (ip), vehicle: saline with Tween-80
[3] = dose: 200.0 mg/kg/injection, schedule: Q01DX005 (ip), vehicle: saline with Tween-80
[4] = dose: 100.0 mg/kg/injection, schedule: Q01DX001 (ip), vehicle: saline with Tween-80
[5] = dose: 200.0 mg/kg/injection, schedule: Q01DX001 (ip), vehicle: saline with Tween-80
[6] = dose: 60.0 mg/kg/injection, schedule: Q01DX005 (ip), vehicle: saline with Tween-80
[7] = dose: 120.0 mg/kg/injection, schedule: Q01DX005 (ip), vehicle: saline with Tween-80
[8] = dose: 240.0 mg/kg/injection, schedule: Q01DX005 (ip), vehicle: saline with Tween-80
[9] = dose: 50.0 mg/kg/injection, schedule: Q01DX009 (ip), vehicle: saline
[10] = dose: 100.0 mg/kg/injection, schedule: Q01DX009 (ip), vehicle: saline
[11] = dose: 50.0 mg/kg/injection, schedule: Q01DX009 (ip), vehicle: saline with Tween-80
[12] = dose: 100.0 mg/kg/injection, schedule: Q01DX009 (ip), vehicle: saline with Tween-80
[13] = dose: 200.0 mg/kg/injection, schedule: Q01DX009 (ip), vehicle: saline with Tween-80

Measured: T/C

O=c1oc2ccc(Cl)cc2c2c1OC(c1ccccc1)CN2 (stereo not drawn)
inactive: dose: 3.13 mg/kg/injection, schedule: Q01DX009 (ip), vehicle: saline with Tween-80 110 % of control | dose: 6.25 mg/kg/injection, schedule: Q01DX009 (ip), vehicle: saline with Tween-80 110 % of control | dose: 12.5 mg/kg/injection, schedule: Q01DX009 (ip), vehicle: saline with Tween-80 103 % of control | dose: 25.0 mg/kg/injection, schedule: Q01DX009 (ip), vehicle: saline with Tween-80 103 % of control

C1CCC2(CC1)C[Se]C2
inactive: dose: 7.5 mg/kg/injection, schedule: Q01DX009 (ip), vehicle: saline with Tween-80 108 % of control | dose: 15.0 mg/kg/injection, schedule: Q01DX009 (ip), vehicle: saline with Tween-80 113 % of control | dose: 30.0 mg/kg/injection, schedule: Q01DX009 (ip), vehicle: saline with Tween-80 105 % of control

CCCCC1(CC)COC(C)(c2ccccc2)OC1 (stereo not drawn)
inactive: dose: 75.0 mg/kg/injection, schedule: Q01DX009 (ip), vehicle: saline 112 % of control | dose: 150.0 mg/kg/injection, schedule: Q01DX009 (ip), vehicle: saline 110 % of control | dose: 300.0 mg/kg/injection, schedule: Q01DX009 (ip), vehicle: saline 108 % of control

CCC(CC)(C(=O)Nc1ccc2[nH]c3ccccc3c(=O)c2c1)C(=O)Nc1ccc2[nH]c3ccccc3c(=O)c2c1
inactive: [1] 97 % of control | [2] 105 % of control | [3] 99 % of control

COc1ccc(/C(=C/c2c(C(=O)O)oc3ccccc23)c2ccccc2)cc1
inactive: [4] 97 % of control | [5] 99 % of control

CC(c1ccccc1)[P+](c1ccccc1)(c1ccccc1)c1ccccc1 (stereo not drawn)
inactive: dose: 0.78 mg/kg/injection, schedule: Q01DX009 (ip), vehicle: saline 112 % of control and 93 % of control | dose: 1.56 mg/kg/injection, schedule: Q01DX009 (ip), vehicle: saline 109 % of control and 118 % of control | dose: 3.13 mg/kg/injection, schedule: Q01DX009 (ip), vehicle: saline 118 % of control and 121 % of control

CC(C)(C)SCC(CSC(C)(C)C)(CSC(C)(C)C)CSC(C)(C)C
inactive: dose: 1.5 mg/kg/injection, schedule: Q01DX001 (ip), vehicle: saline with Tween-80 102 % of control | dose: 3.0 mg/kg/injection, schedule: Q01DX001 (ip), vehicle: saline with Tween-80 98 % of control | dose: 6.0 mg/kg/injection, schedule: Q01DX001 (ip), vehicle: saline with Tween-80 112 % of control

N#CCCn1nc(Sc2ccccc2)c(=O)[nH]c1=O
inactive: [1] 95 % of control | [6] 100 % of control | [2] 94 % of control | [7] 100 % of control | [3] 94 % of control | [8] 95 % of control

CCCCCCCCCCOc1cc2c(=O)c(C(=O)OCC)c[nH]c2cc1OCC
inactive: dose: 50.0 mg/kg/injection, schedule: Q01DX005 (ip), vehicle: Klucel (hydroxypropylcellulose) (HPC) 102 % of control | dose: 100.0 mg/kg/injection, schedule: Q01DX005 (ip), vehicle: Klucel (hydroxypropylcellulose) (HPC) 98 % of control | dose: 200.0 mg/kg/injection, schedule: Q01DX005 (ip), vehicle: Klucel (hydroxypropylcellulose) (HPC) 108 % of control

CC1(C)CC(OS(C)(=O)=O)CC(C)(C)N1O
inactive: dose: 50.0 mg/kg/injection, schedule: Q01DX009 (ip), vehicle: Klucel (hydroxypropylcellulose) (HPC) 100 % of control | dose: 100.0 mg/kg/injection, schedule: Q01DX009 (ip), vehicle: Klucel (hydroxypropylcellulose) (HPC) 99 % of control

O=C(O)c1ncc2ncccc2c1O
inactive: [9] 107 % of control | [10] 104 % of control | dose: 200.0 mg/kg/injection, schedule: Q01DX009 (ip), vehicle: saline 101 % of control

COc1ccc(NC(=O)/N=C2\CN(C(=O)c3c(F)cccc3F)C(=O)N2c2ccc(OC)cc2)cc1
inactive: [6] 87 % of control | [7] 89 % of control | [8] 103 % of control

OC(CNc1c2ccccc2nc2ccccc12)COc1c2ccccc2nc2ccccc12 (stereo not drawn)
inactive: [6] 95 % of control | [7] 92 % of control | [8] 100 % of control

CC(C)C(NC(=O)OC(C)(C)C)C(=O)NC(CC(=O)OCc1ccccc1)C(=O)OCc1ccccc1 (stereo not drawn)
inactive: [2] 88 % of control | [3] 91 % of control | dose: 400.0 mg/kg/injection, schedule: Q01DX005 (ip), vehicle: saline with Tween-80 88 % of control

CCOC(=O)C1C(=O)N2C(=O)C(NC(C)=O)=C(O)C2C1c1ccccc1 (stereo not drawn)
inactive: dose: 100.0 mg/kg/injection, schedule: Q04DX002 (ip), vehicle: saline with Tween-80 100 % of control | dose: 200.0 mg/kg/injection, schedule: Q04DX002 (ip), vehicle: saline with Tween-80 99 % of control | dose: 400.0 mg/kg/injection, schedule: Q04DX002 (ip), vehicle: saline with Tween-80 100 % of control

CCOC(=O)c1cn[nH]c(=O)c1C
inactive: [11] 100 % of control | [12] 96 % of control | [13] 104 % of control

O=C(O)Cc1ccc2c(c1)C(=O)c1ccccc1CO2
inactive: [11] 94 % of control | [12] 103 % of control | [13] 100 % of control

CC(C)Cn1c(Cl)c(C=O)c2ccccc21
inactive: dose: 100.0 mg/kg/injection, schedule: Q04DX002 (ip), vehicle: Klucel (hydroxypropylcellulose) (HPC) 101 % of control | dose: 200.0 mg/kg/injection, schedule: Q04DX002 (ip), vehicle: Klucel (hydroxypropylcellulose) (HPC) 97 % of control | dose: 400.0 mg/kg/injection, schedule: Q04DX002 (ip), vehicle: Klucel (hydroxypropylcellulose) (HPC) 90 % of control

Cc1cc(Nc2ccc(N(C)C)cc2)c2cc(N(C)C)ccc2n1
inactive: [11] 96 % of control | [12] 107 % of control

CCC1(O)C(=O)OCc2c1cc1n(c2=O)Cc2ccccc2-1 (stereo not drawn)
inactive: [4] 96 % of control | [5] 90 % of control | dose: 400.0 mg/kg/injection, schedule: Q01DX001 (ip), vehicle: saline with Tween-80 92 % of control

CC(C)(C)N1CC1CN (stereo not drawn)
inactive: dose: 25.0 mg/kg/injection, schedule: Q01DX009 (ip), vehicle: saline 100 % of control | [9] 107 % of control | [10] 105 % of control

CC(C)Cc1c[nH]c(=O)[nH]c1=O
inactive: [12] 95 % of control | [13] 95 % of control | dose: 400.0 mg/kg/injection, schedule: Q01DX009 (ip), vehicle: saline with Tween-80 91 % of control

O=C(CN(O)C(=O)c1ccccc1)OCc1ccccc1
inactive: dose: 12.5 mg/kg/injection, schedule: Q01DX009 (ip), vehicle: distilled water + Tween-80 97 % of control | dose: 25.0 mg/kg/injection, schedule: Q01DX009 (ip), vehicle: distilled water + Tween-80 99 % of control | dose: 50.0 mg/kg/injection, schedule: Q01DX009 (ip), vehicle: distilled water + Tween-80 99 % of control | dose: 100.0 mg/kg/injection, schedule: Q01DX009 (ip), vehicle: distilled water + Tween-80 101 % of control | dose: 200.0 mg/kg/injection, schedule: Q01DX009 (ip), vehicle: distilled water + Tween-80 101 % of control

CCSc1n[nH]c(C2CCC(=O)N2Cc2ccccc2)n1 (stereo not drawn)
inactive: [1] 103 % of control | [2] 104 % of control | [3] 102 % of control

C=C1CC2(CC3CC2C2CCCC32)OC1=O (stereo not drawn)
inactive: dose: 100.0 mg/kg/injection, schedule: Q04DX002 (ip), vehicle: saline 100 % of control | dose: 200.0 mg/kg/injection, schedule: Q04DX002 (ip), vehicle: saline 94 % of control | dose: 400.0 mg/kg/injection, schedule: Q04DX002 (ip), vehicle: saline 98 % of control
